Data on six compounds can be found in patent publication US10213415B2, “Compounds as opioid receptor modulators” (JANSSEN PHARMACEUTICA NV, priority 2004, dated 2019).

Each structure is given as a SMILES string. Several values for one entry are separate records, joined by “and”; a condition that tells them apart may be missing. Equal values may be shown once.

Usually EC50 stands for the midpoint of the concentration-response curve.

One assay deals with T1, delta opioid receptor (Rattus norvegicus, UniProt P33533).
T1 construct: from tissue; host or cells: forebrain of male Wistar rats
T1 sequence (P33533 whole entry): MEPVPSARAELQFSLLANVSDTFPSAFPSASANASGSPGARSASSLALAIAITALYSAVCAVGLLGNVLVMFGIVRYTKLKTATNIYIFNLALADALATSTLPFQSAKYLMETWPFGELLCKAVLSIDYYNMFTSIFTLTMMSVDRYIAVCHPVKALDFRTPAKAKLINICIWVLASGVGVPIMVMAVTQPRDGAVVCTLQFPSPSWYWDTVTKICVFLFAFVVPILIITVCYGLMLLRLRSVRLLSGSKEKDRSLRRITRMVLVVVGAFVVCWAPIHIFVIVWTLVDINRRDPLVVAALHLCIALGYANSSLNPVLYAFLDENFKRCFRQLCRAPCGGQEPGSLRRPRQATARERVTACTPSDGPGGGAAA
Kind of assay: Rat Brain Delta Opioid Receptor Binding Assay ([3H]DPDPE). To be noted: rat forebrain membranes, margin of error 10-20%, read-out: r Ki δ. A digest of the protocol:
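Rat (male Wistar) forebrain membranes in 50 mM Tris-HCl pH 7.4 with 5 mM MgCl2, incubated with ~4 nM [3H]DPDPE for 2.5 h at 25 °C. Bound ligand collected by filtration and scintillation counting. Single-concentration data given as % inhibition of specific binding; concentration series fitted to Ki.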

The target of assay [1] is T2, mu opioid receptor (CHO-hMOR cell membranes) (Homo sapiens, UniProt P35372).
T2 construct: purchased Receptor Biology, Inc. (Baltimore, Md.); host or cells: CHO cells (recombinant expression)
T2 sequence (P35372 whole entry): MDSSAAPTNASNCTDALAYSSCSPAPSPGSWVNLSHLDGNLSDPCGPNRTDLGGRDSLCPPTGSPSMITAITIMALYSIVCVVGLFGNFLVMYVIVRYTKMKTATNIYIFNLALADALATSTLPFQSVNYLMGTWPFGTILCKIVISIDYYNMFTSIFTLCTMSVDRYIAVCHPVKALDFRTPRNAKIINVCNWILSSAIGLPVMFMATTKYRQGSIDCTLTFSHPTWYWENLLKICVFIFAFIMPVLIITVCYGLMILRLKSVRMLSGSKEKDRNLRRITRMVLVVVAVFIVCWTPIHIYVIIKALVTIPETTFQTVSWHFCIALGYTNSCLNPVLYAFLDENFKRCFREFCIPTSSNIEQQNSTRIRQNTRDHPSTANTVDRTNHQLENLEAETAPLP
Kind of assay: Mu Opioid Receptor Functional Assay: [35S]GTPγS Binding in CHO-hMOR Cell Membranes, Versions 1 and 2. The class given is biochemical. Conditions: for MOR GTP binding assay_v1 (% I): version 1, % inhibition of agonist-stimulated GTPγS binding; for MOR GTP assay_v1 % of Basal: version 1, basal binding = 100%; for MOR GTP binding assay_v2 (% I): version 2, % inhibition of agonist-stimulated GTPγS binding; for EC50: version 2, read-out: MOR GTP binding assay v2 EC50. A digest of the protocol:
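Agonist-stimulated [35S]GTPγS (0.5 nM) binding measured by SPA in human MOR CHO membranes, buffer pH 7.6 with 100 mM NaCl, 5 mM MgCl2. Antagonist mode: % inhibition of stimulation by 1 μM SNC80; agonist mode: EC50 fitted. Basal binding without agonist, non-specific with 10 μM cold GTPγS.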
Background: GTPγS resists hydrolysis and so accumulates on activated G proteins.

For a further assay, the target named is T3, human mu opioid receptor (Homo sapiens, UniProt P35372).
T3 construct: purchased Perkin Elmer RBHOMM400UA; host or cells: Chinese Hamster Ovary cells (recombinant expression)
T3 sequence (P35372 whole entry): as above
Kind of assay: Human Mu Opioid Receptor Binding Assay (CHO membranes, 3H-Damgo). To be noted: read-out: hKi μ. A digest of the protocol:
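Radioligand displacement of ³H-Damgo (diluted to 3.6 nM pre-mix) from recombinant human mu receptor in CHO membranes, 2 h, room temperature, 50 mM Tris pH 7.5 with 5 mM MgCl2. Bound label read by filtration and scintillation counting; 1 μM unlabelled Damgo defines nonspecific binding.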

`CC(C)N(Cc1nc(-c2ccccc2)c[nH]1)C(=O)[C@@H](N)Cc1ccc(O)cc1` [Cpd 195]: the Ki was 306 nM on delta opioid receptor and 9.8 nM at human mu opioid receptor. In addition, in assay [1], the “MOR GTP binding assay_v1 (% I)” value is recorded as 34.00%. Moreover, in assay [1], the “MOR GTP assay_v1 % of Basal” value amounted to 378.00%.

On to `Cc1cc(C(N)=O)cc(C)c1C[C@H](N)C(=O)N(Cc1cccc(C(=O)O)c1)[C@@H](C)c1nc(-c2ccccc2)c[nH]1` [Cpd 227], for which the Ki at delta opioid receptor was 0.08 nM and 0.46 nM. For the same compound, in assay [1], the “MOR GTP binding assay_v2 (% I)” value amounted to 36.00% and the EC50 stood at 60.8 nM. Besides, the Ki at human mu opioid receptor was 1.92 nM.

As to `Cc1cc(O)cc(C)c1C[C@H](N)C(=O)N(C)Cc1nc(-c2ccccc2)c[nH]1` [Cpd 199], the Ki on delta opioid receptor was 26.3 nM. In assay [1], the “MOR GTP binding assay_v1 (% I)” value was 11.00% and the “MOR GTP assay_v1 % of Basal” value stood at 465.00%. On human mu opioid receptor, the Ki amounted to 0.29 nM.

Turning to `Cc1cc(O)cc(C)c1C[C@H](N)C(=O)N(Cc1ccccc1)[C@@H](C)c1nc(-c2ccccc2)c[nH]1` [Cpd 218], the Ki at delta opioid receptor worked out at 1.45 nM; at human mu opioid receptor, 3.92 nM. In addition, the “MOR GTP binding assay_v1 (% I)” value in assay [1] turned out to be 1.00%. Further, the “MOR GTP assay_v1 % of Basal” value in assay [1] is 599.00%.

Turning to `COc1ccc(CN(Cc2nc(-c3ccccc3)c[nH]2)C(=O)[C@@H](N)Cc2ccc(C(N)=O)cc2)cc1C(=O)O` [Cpd 5], the Ki on delta opioid receptor was 630 nM and 183 nM. In assay [1], the “MOR GTP binding assay_v2 (% I)” value is 7.87% and the EC50 was found to be 71 nM. Further, the Ki on human mu opioid receptor was found to be 3.9 nM.

In the case of `Cc1ccccc1-c1nc(CN(C(=O)[C@@H](N)Cc2c(C)cc(O)cc2C)C(C)C)[nH]c1C` [Cpd 165], the Ki was 23.6 nM on delta opioid receptor and 0.45 nM at human mu opioid receptor. For the same compound, in assay [1], the “MOR GTP binding assay_v1 (% I)” value is reported as 1.00%.
